Among the data in US8741906B2 (priority 2011, dated 2014) are EC50 values, retold here.

The target in one assay is T1, human CB2 receptors (Homo sapiens, UniProt P34972).
T1 construct: expressed in transfected cells; host or cells: CHO cells
Description: functional cAMP assay, human CB2. Type of assay: cell-based. The protocol: (§1) CHO cells expressing human CB1 or CB2 receptors are seeded 17-24 hours prior to the experiment 50.000 cells per well in a black 96 well plate with flat clear bottom (Corning Costar #3904) in DMEM (Invitrogen No. 31331), 1×HT supplement, with 10% fetal calf serum and incubated at 5% CO2 and 37° C. in a humidified incubator. The growth medium was exchanged with Krebs Ringer Bicarbonate buffer with 1 mM IBMX and incubated at 30° C. for 30 min. Compounds were added to a final assay volume of 100 μl and incubated for 30 min at 30° C. Using the cAMP-Nano-TRF detection kit the assay (Roche Diagnostics) was stopped by the addition of 50 μl lysis reagent (Tris, NaCl, 1.5% Triton X100, 2.5% NP40, 10% NaN3) and 50 μl detection solutions (20 μM mAb Alexa700-cAMP 1:1, and 48 μM Ruthenium-2-AHA-cAMP) and shaken for 2 h at room temperature. The time-resolved energy transfer is measured by a TRF reader (Evotec Technologies GmbH), equipped with a ND:YAG laser as excitation source. The plate is measured twice with the excitation at 355 nm and at the emission with a delay of 100 ns and a gate of 100 ns, total exposure time 10 s at 730 (bandwidth 30 nm) or 645 nm (bandwidth 75 nm), respectively. The FRET signal is calculated as follows: FRET=T730-Alexa730-P(T645-B645) with P=Ru730-B730/Ru645-B645, where T730 is the test well measured at 730 nM, T645 is the test well measured at 645 nm, B730 and B645 are the buffer controls at 730 nm and 645 nm, respectively. cAMP content is determined from the function of a standard curve spanning from 10 μM to 0.13 nM cAMP.
(§2) EC50 values were determined using Activity Base analysis (ID Business Solution, Limited). The EC50 values for a wide range of cannabinoid agonists generated from this assay were in agreement with the values published in the scientific literature.
In general terms: Changes in cAMP serve as a functional read-out for many G protein-coupled receptors.

The target in another assay is T2, human CB1 receptors (Homo sapiens, UniProt P21554).
T2 construct: expressed in transfected cells; host or cells: CHO cells
Briefly: functional cAMP assay, human CB1. Type of assay: cell-based. The protocol:
as §1, §2

Setting [1] is: CHO cells expressing human CB2, cAMP, read-out: human CB2 EC50.
[2] abbreviates: CHO cells expressing human CB1, cAMP, read-out: human CB1 EC50.

Like-named read-outs stand apart in the source and are kept apart here.

As usually defined, the EC50 is the midpoint of the concentration-response curve.

T2 sequence (P21554 whole entry): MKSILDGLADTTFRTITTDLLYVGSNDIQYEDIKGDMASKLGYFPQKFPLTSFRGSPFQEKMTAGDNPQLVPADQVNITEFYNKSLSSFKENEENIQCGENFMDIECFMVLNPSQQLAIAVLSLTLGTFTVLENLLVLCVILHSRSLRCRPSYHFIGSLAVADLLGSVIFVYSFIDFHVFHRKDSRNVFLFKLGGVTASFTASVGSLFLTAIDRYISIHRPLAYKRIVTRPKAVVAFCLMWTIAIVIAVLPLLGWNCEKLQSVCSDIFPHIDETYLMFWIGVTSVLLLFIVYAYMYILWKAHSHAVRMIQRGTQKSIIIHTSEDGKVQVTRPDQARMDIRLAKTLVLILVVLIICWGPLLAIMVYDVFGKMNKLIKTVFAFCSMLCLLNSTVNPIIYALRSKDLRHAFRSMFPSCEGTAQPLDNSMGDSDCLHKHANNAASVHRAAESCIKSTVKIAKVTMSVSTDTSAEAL
T1 sequence (P34972 whole entry): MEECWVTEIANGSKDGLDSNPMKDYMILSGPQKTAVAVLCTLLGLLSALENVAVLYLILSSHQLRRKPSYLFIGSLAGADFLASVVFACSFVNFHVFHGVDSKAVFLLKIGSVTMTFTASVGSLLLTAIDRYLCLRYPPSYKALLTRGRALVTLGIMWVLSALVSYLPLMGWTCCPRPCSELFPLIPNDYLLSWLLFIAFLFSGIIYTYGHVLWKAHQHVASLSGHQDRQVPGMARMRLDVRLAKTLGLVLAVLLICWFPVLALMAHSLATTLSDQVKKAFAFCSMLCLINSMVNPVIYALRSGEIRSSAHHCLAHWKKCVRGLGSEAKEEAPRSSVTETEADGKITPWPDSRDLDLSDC

As to `Cc1noc(Cn2nnc3c(N4CC5(COC5)C4)nc(C(C)(C)C)nc32)n1` [Example 180, 5-tert-Butyl-3-(3-methyl-[1,2,4]oxadiazol-5-ylmethyl)-7-(2-oxa-6-aza-spiro[3.3]hept-6-yl)-3H-[1,2,3]triazolo[4,5-d]pyrimidine], the figures for the EC50 on human CB2 receptors (setting [1]) and at human CB1 receptors (setting [2]) were 52.8 nM and greater than 10000 nM, respectively.
For the molecule `CC(C)(C)c1nc(N2CC[C@H](O)C2)c2nnn(Cc3ccccc3Cl)c2n1` [Example 26, (S)-1-[5-tert-Butyl-3-(2-chloro-benzyl)-3H-[1,2,3]triazolo[4,5-d]pyrimidin-7-yl]-pyrrolidin-3-ol], the figures for the EC50 on human CB2 receptors (setting [1]) and at human CB1 receptors (setting [2]) were 1.1 nM and 866 nM, respectively.
On to `CC(C)(C)c1nc(N2CC[C@@H](O)C2)c2nnn(Cc3ccccc3Cl)c2n1` [Example 27, (R)-1-[5-tert-Butyl-3-(2-chloro-benzyl)-3H-[1,2,3]triazolo[4,5-d]pyrimidin-7-yl]-pyrrolidin-3-ol], for which the 50% effective concentration (EC50) is 5.1 nM at human CB2 receptors (setting [1]) and greater than 10000 nM at human CB1 receptors (setting [2]).
Turning to `CC(C)(C)c1nc(N2CCC(=O)C2)c2nnn(Cc3ccccc3Cl)c2n1` [Example 188, 1-[5-tert-Butyl-3-(2-chloro-benzyl)-3H-[1,2,3]triazolo[4,5-d]pyrimidin-7-yl]-pyrrolidin-3-one], the values for the EC50 on human CB2 receptors (setting [1]) and on human CB1 receptors (setting [2]) were 1 nM and greater than 10000 nM, respectively.
As for `CC(C)(C)c1nc(N2CCC[C@H]2CO)c2nnn(Cc3ccccc3Cl)c2n1` [Example 38, {(S)-1-[5-tert-Butyl-3-(2-chloro-benzyl)-3H-[1,2,3]triazolo[4,5-d]pyrimidin-7-yl]-pyrrolidin-2-yl}-methanol], the figures for the EC50 on human CB2 receptors (setting [1]) and at human CB1 receptors (setting [2]) were 18.2 nM and 361 nM, respectively.
`CC(C)(C)c1nc(N2CCC(F)(F)C2)c2nnn(CC3CCCCC3)c2n1` [Example 64, 5-tert-Butyl-3-cyclohexylmethyl-7-(3,3-difluoro-pyrrolidin-1-yl)-3H-[1,2,3]triazolo[4,5-d]pyrimidine]: the EC50 was 2.3 nM on human CB2 receptors (setting [1]) and greater than 10000 nM on human CB1 receptors (setting [2]).
The like results for `Cn1nnnc1Cn1nnc2c(N3CCC(F)(F)C3)nc(C(C)(C)C)nc21` [Example 131, 5-tert-Butyl-7-(3,3-difluoro-pyrrolidin-1-yl)-3-(1-methyl-1H-tetrazol-5-ylmethyl)-3H-[1,2,3]triazolo[4,5-d]pyrimidine] were, in that order, 0.1 nM and greater than 10000 nM.
Take `Cc1noc(Cn2nnc3c(N4CCC(F)(F)C4)nc(C(C)(C)C)nc32)n1` [Example 102, 5-tert-Butyl-7-(3,3-difluoro-pyrrolidin-1-yl)-3-(3-methyl-[1,2,4]oxadiazol-5-ylmethyl)-3H-[1,2,3]triazolo[4,5-d]pyrimidine]: the figures for the EC50 on human CB2 receptors (setting [1]) and at human CB1 receptors (setting [2]) were 0.6 nM and greater than 10000 nM, respectively.
`Cc1cc(C2CCCN2c2nc(C(C)(C)C)nc3c2nnn3Cc2ccccc2Cl)on1` (centres unmarked) [Example 202, 5-tert-Butyl-3-(2-chloro-benzyl)-7-[2-(3-methyl-isoxazol-5-yl)-pyrrolidin-1-yl]-3H-[1,2,3]triazolo[4,5-d]pyrimidine]: the EC50 at human CB2 receptors (setting [1]) was 86.8 nM; on human CB1 receptors (setting [2]) it was greater than 10000 nM.
On to `CC1CCN(c2nc(C(C)(C)C)nc3c2nnn3Cc2ccccc2Cl)C1` (centres unmarked) [Example 198, 5-tert-Butyl-3-(2-chloro-benzyl)-7-(3-methyl-pyrrolidin-1-yl)-3H-[1,2,3]triazolo[4,5-d]pyrimidine], for which the EC50 was found to be 12.8 nM on human CB2 receptors (setting [1]) and 1710 nM at human CB1 receptors (setting [2]).
As for `Cc1nonc1Cn1nnc2c(N3CC[C@H](O)C3)nc(C(C)(C)C)nc21` [Example 136, (S)-1-[5-tert-Butyl-3-(4-methyl-furazan-3-ylmethyl)-3H-[1,2,3]triazolo[4,5-d]pyrimidin-7-yl]-pyrrolidin-3-ol], the EC50 at human CB2 receptors (setting [1]) is 0.2 nM; at human CB1 receptors (setting [2]), greater than 10000 nM.
With `Cn1nnnc1Cn1nnc2c(N3CC[C@@H](O)C3)nc(C(C)(C)C)nc21` [Example 219, (R)-1-(5-tert-butyl-3-((1-methyl-1H-tetrazol-5-yl)methyl)-3H-[1,2,3]triazolo[4,5-d]pyrimidin-7-yl)pyrrolidin-3-ol], the EC50 at human CB2 receptors was 32.9 nM; at human CB1 receptors, greater than 10000 nM.
As to `Cn1nnnc1Cn1nnc2c(N3CC(F)(F)C(F)(F)C3)nc(C(C)(C)C)nc21` [Example 176, 5-tert-Butyl-3-(1-methyl-1H-tetrazol-5-ylmethyl)-7-(3,3,4,4-tetrafluoro-pyrrolidin-1-yl)-3H-[1,2,3]triazolo[4,5-d]pyrimidine], the EC50 at human CB2 receptors (setting [1]) stood at 0.5 nM; at human CB1 receptors (setting [2]), 2000 nM.
In the case of `CC(C)(C)c1nc(N2CCC(F)(F)C2)c2nnn(Cc3ccccc3OC(F)(F)F)c2n1` [Example 82, 5-tert-Butyl-7-(3,3-difluoro-pyrrolidin-1-yl)-3-(2-trifluoromethoxy-benzyl)-3H-[1,2,3]triazolo[4,5-d]pyrimidine], the concentration for a half-maximal effect (EC50) at human CB2 receptors (setting [1]) was 0.2 nM; at human CB1 receptors (setting [2]), 252 nM.
As for `CC(C)(C)c1nc(N2CCCCO2)c2nnn(Cc3ccccc3Cl)c2n1` [Example 39, 5-tert-Butyl-3-(2-chloro-benzyl)-7-[1,2]oxazinan-2-yl-3H-[1,2,3]triazolo[4,5-d]pyrimidine], the EC50 on human CB2 receptors (setting [1]) was 7.9 nM; at human CB1 receptors (setting [2]) it was 1330 nM.
With `CC(C)(C)c1nc(N2CCC(F)(F)C2)c2nnn(Cc3ccccc3S(C)(=O)=O)c2n1` [Example 112, 5-tert-Butyl-7-(3,3-difluoro-pyrrolidin-1-yl)-3-(2-methanesulfonyl-benzyl)-3H-[1,2,3]triazolo[4,5-d]pyrimidine], the 50% effective concentration (EC50) at human CB2 receptors (setting [1]) is 0.1 nM; at human CB1 receptors (setting [2]) it was 4.7 nM.
The corresponding values for `CC(C)(C)c1nc(N2CC[C@@](C)(O)C2)c2nnn(Cc3nnnn3C3CC3)c2n1` [Example 230-b, (R)-1-(5-tert-butyl-3-((1-cyclopropyl-1H-tetrazol-5-yl)methyl)-3H-[1,2,3]triazolo[4,5-d]pyrimidin-7-yl)-3-methylpyrrolidin-3-ol] are 13.6 nM and greater than 10000 nM.
As to `CC1(O)CN(c2nc(C(C)(C)C)nc3c2nnn3Cc2ccccc2Cl)C1` [Example 14, 1-[5-tert-Butyl-3-(2-chloro-benzyl)-3H-[1,2,3]triazolo[4,5-d]pyrimidin-7-yl]-3-methyl-azetidin-3-ol], the EC50 at human CB2 receptors (setting [1]) is 2.1 nM; on human CB1 receptors (setting [2]) it was 1230 nM.
For the molecule `CC(C)(C)c1nc(N2CCC(F)(F)C2)c2nnn(CC(=O)c3ccccc3Cl)c2n1` [Example 110, 2-[5-tert-Butyl-7-(3,3-difluoro-pyrrolidin-1-yl)-[1,2,3]triazolo[4,5-d]pyrimidin-3-yl]-1-(2-chloro-phenyl)-ethanone], the figures for the EC50 on human CB2 receptors (setting [1]) and on human CB1 receptors (setting [2]) were 0.2 nM and 250 nM, respectively.
As for `CC(C)(C)c1nc(NC2CCCCC2)c2nnn(Cc3ccccc3Cl)c2n1` [Example 8, [5-tert-Butyl-3-(2-chloro-benzyl)-3H-[1,2,3]triazolo[4,5-d]pyrimidin-7-yl]-cyclohexyl-amine], the EC50 at human CB2 receptors (setting [1]) is 647 nM; at human CB1 receptors, greater than 10000 nM.
Turning to `Cn1nncc1Cn1nnc2c(N3CCC(F)(F)C3)nc(C(C)(C)C)nc21` [Example 145, 5-tert-Butyl-7-(3,3-difluoro-pyrrolidin-1-yl)-3-(3-methyl-3H-[1,2,3]triazol-4-ylmethyl)-3H-[1,2,3]triazolo[4,5-d]pyrimidine], the EC50 on human CB2 receptors (setting [1]) was 0.2 nM; on human CB1 receptors (setting [2]) it was 2250 nM.
The corresponding values for `CC(C)(C)c1nc(N2CCC(F)(F)C2)c2nnn(Cc3nccc(Cl)c3Cl)c2n1` [Example 124, 5-tert-Butyl-3-(3,4-dichloro-pyridin-2-ylmethyl)-7-(3,3-difluoro-pyrrolidin-1-yl)-3H-[1,2,3]triazolo[4,5-d]pyrimidine] are 0.3 nM and 276 nM.
As to `COC1CN(c2nc(C(C)(C)C)nc3c2nnn3Cc2ccccc2Cl)C1` [Example 15, 5-tert-Butyl-3-(2-chloro-benzyl)-7-(3-methoxy-azetidin-1-yl)-3H-[1,2,3]triazolo[4,5-d]pyrimidine], the EC50 at human CB2 receptors (setting [1]) stood at 3.2 nM; on human CB1 receptors (setting [2]) it was 970 nM.
The corresponding values for `Cc1c(Cn2nnc3c(N4CC[C@H](O)C4)nc(C(C)(C)C)nc32)ccc[n+]1[O-]` [Example 162, (S)-1-[5-tert-Butyl-3-(2-methyl-1-oxy-pyridin-3-ylmethyl)-3H-[1,2,3]triazolo[4,5-d]pyrimidin-7-yl]-pyrrolidin-3-ol] are 27.7 nM and greater than 10000 nM.
Take `COc1ccccc1Cn1nnc2c(N3CCC(F)(F)C3)nc(C(C)(C)C)nc21` [Example 81, 5-tert-Butyl-7-(3,3-difluoro-pyrrolidin-1-yl)-3-(2-methoxy-benzyl)-3H-[1,2,3]triazolo[4,5-d]pyrimidine]: the figures for the EC50 on human CB2 receptors (setting [1]) and at human CB1 receptors (setting [2]) were 0.1 nM and 68.9 nM, respectively.
